Measurements reported in the supplement of paper PMC6965134.
± gives the standard deviation of the averaged measurements.

Assay: TIMS collisional cross section (CCS, N2) of the lipid ion; higher = larger ion cross section
Conditions: ionization mode: positive, one isomer drawn

CCCCCC/C=C\CCCCCCCC(=O)O[C@H](COC(=O)CCCCCCCCCCCCCCC)COP(=O)([O-])OCC[N+](C)(C)C [PC 16:0_16:1] (ion (formula + adduct): [C40H78NO8P+H] 1+)
TIMS collisional cross section (sample type: HeLa): 282.63 ± 1.3 Å² | TIMS collisional cross section (sample type: Liver): 282.3 Å² | TIMS collisional cross section (sample type: plasma): 282.3 Å²

CCCCCCC/C=C\CCCCCCCC(=O)O[C@H](COC(=O)CCCCCCCCCCCCCCC)COP(=O)([O-])OCC[N+](C)(C)C [PC 16:0_17:1] (ion (formula + adduct): [C41H80NO8P+H] 1+)
TIMS collisional cross section (sample type: HeLa): 285.8 Å²

CCCCCCCCCCCCCCCCCC(=O)O[C@H](COC(=O)CCCCCCCCCCCCCCC)COP(=O)([O-])OCC[N+](C)(C)C [PC 16:0_18:0] (ion (formula + adduct): [C42H84NO8P+H] 1+)
TIMS collisional cross section (sample type: Liver): 291.4 Å²

CCCCCCCC/C=C\CCCCCCCC(=O)O[C@H](COC(=O)CCCCCCCCCCCCCCC)COP(=O)([O-])OCC[N+](C)(C)C [PC 16:0_18:1] (ion (formula + adduct): [C42H82NO8P+H] 1+)
TIMS collisional cross section (sample type: HeLa): 288.37 ± 0.9 Å² | TIMS collisional cross section (sample type: plasma): 287.7 Å²

CCCCCCCC/C=C\CCCCCCCC(=O)O[C@H](COC(=O)CCCCCCCCCCCCCCC)COP(=O)([O-])OCC[N+](C)(C)C [PC 16:0_18:1] (ion (formula + adduct): [C42H82NO8P+Na] 1+)
TIMS collisional cross section (sample type: HeLa): 288.7 Å²

CCCCC/C=C\C=C\CCCCCCCCC(=O)O[C@H](COC(=O)CCCCCCCCCCCCCCC)COP(=O)([O-])OCC[N+](C)(C)C [PC 16:0_18:2] (ion (formula + adduct): [C42H80NO8P+H] 1+)
TIMS collisional cross section (sample type: Liver): 286.3 Å² | TIMS collisional cross section (sample type: plasma): 282.45 ± 2.8 Å²

CCCCC/C=C\C/C=C\C/C=C\CCCCC(=O)O[C@H](COC(=O)CCCCCCCCCCCCCCC)COP(=O)([O-])OCC[N+](C)(C)C [PC 16:0_18:3] (ion (formula + adduct): [C42H78NO8P+H] 1+)
TIMS collisional cross section (sample type: Liver): 282 Å² | TIMS collisional cross section (sample type: plasma): 282 Å²

CCCCCCCC/C=C\CCCCCCCCCC(=O)O[C@H](COC(=O)CCCCCCCCCCCCCCC)COP(=O)([O-])OCC[N+](C)(C)C [PC 16:0_20:1@] (ion (formula + adduct): [C44H86NO8P+H] 1+)
TIMS collisional cross section (sample type: Liver): 295.2 Å²

CCCCCCCC/C=C\C/C=C\C/C=C\CCCC(=O)O[C@H](COC(=O)CCCCCCCCCCCCCCC)COP(=O)([O-])OCC[N+](C)(C)C [PC 16:0_20:3] (ion (formula + adduct): [C44H82NO8P+H] 1+)
TIMS collisional cross section (sample type: plasma): 290.5 Å²

CC/C=C\C/C=C\C/C=C\C/C=C\C/C=C\CCCC(=O)O[C@H](COC(=O)CCCCCCCCCCCCCCC)COP(=O)([O-])OCC[N+](C)(C)C [PC 16:0_20:5@] (ion (formula + adduct): [C44H78NO8P+H] 1+)
TIMS collisional cross section (sample type: HeLa): 286.9 Å²

CC/C=C\C/C=C\C/C=C\C/C=C\C/C=C\CCCC(=O)O[C@H](COC(=O)CCCCCCCCCCCCCCC)COP(=O)([O-])OCC[N+](C)(C)C [PC 16:0_20:5] (ion (formula + adduct): [C44H78NO8P+H] 1+)
TIMS collisional cross section (sample type: Liver): 285.7 Å²

CCCCC/C=C\C/C=C\C/C=C\C/C=C\C/C=C\CCC(=O)O[C@H](COC(=O)CCCCCCCCCCCCCCC)COP(=O)([O-])OCC[N+](C)(C)C [PC 16:0_22:5@] (ion (formula + adduct): [C46H82NO8P+H] 1+)
TIMS collisional cross section (sample type: Liver): 292.7 Å²

CCCCC/C=C\C/C=C\C/C=C\C/C=C\C/C=C\CCC(=O)O[C@H](COC(=O)CCCCCCCCCCCCCCC)COP(=O)([O-])OCC[N+](C)(C)C [PC 16:0_22:5] (ion (formula + adduct): [C46H82NO8P+H] 1+)
TIMS collisional cross section (sample type: plasma): 293.3 Å²

CC/C=C/C/C=C/C/C=C/C/C=C/C/C=C/C/C=C/CCC(=O)O[C@H](COC(=O)CCCCCCCCCCCCCCC)COP(=O)([O-])OCC[N+](C)(C)C [PC 16:0_22:6] (ion (formula + adduct): [C46H80NO8P+H] 1+)
TIMS collisional cross section (sample type: HeLa): 291.8 Å² | TIMS collisional cross section (sample type: plasma): 292 Å²

CCCCC/C=C\C/C=C\C/C=C\CCCCC(=O)O[C@H](COC(=O)CCCCCCC/C=C\CCCCCC)COP(=O)([O-])OCC[N+](C)(C)C [PC 16:1@_18:3] (ion (formula + adduct): [C42H76NO8P+H] 1+)
TIMS collisional cross section (sample type: HeLa): 279.2 Å² | TIMS collisional cross section (sample type: plasma): 280.6 Å²

CCCCC/C=C\C/C=C\C/C=C\C/C=C\CCCC(=O)O[C@H](COC(=O)CCCCCCC/C=C\CCCCCC)COP(=O)([O-])OCC[N+](C)(C)C [PC 16:1@_20:4] (ion (formula + adduct): [C44H78NO8P+H] 1+)
TIMS collisional cross section (sample type: plasma): 285.8 Å²

CC/C=C\C/C=C\C/C=C\C/C=C\C/C=C\CCCC(=O)O[C@H](COC(=O)CCCCCCC/C=C\CCCCCC)COP(=O)([O-])OCC[N+](C)(C)C [PC 16:1@_20:5] (ion (formula + adduct): [C44H76NO8P+H] 1+)
TIMS collisional cross section (sample type: Liver): 282.8 Å²

CCCCCC/C=C\CCCCCCCC(=O)OC[C@H](COP(=O)([O-])OCC[N+](C)(C)C)OC(=O)CCCCCCC/C=C\CCCCCCC [PC 16:1_17:1] (ion (formula + adduct): [C41H78NO8P+H] 1+)
TIMS collisional cross section (sample type: HeLa): 281.9 Å²

CCCCCCCC/C=C\CCCCCCCC(=O)O[C@H](COC(=O)/C=C\CCCCCCCCCCCCC)COP(=O)([O-])OCC[N+](C)(C)C [PC 16:1_18:1] (ion (formula + adduct): [C42H80NO8P+H] 1+)
TIMS collisional cross section (sample type: HeLa): 286.6 Å²

CCCCC/C=C\C/C=C\CCCCCCCC(=O)O[C@H](COC(=O)CCCCCCC/C=C\CCCCCC)COP(=O)([O-])OCC[N+](C)(C)C [PC 16:1_18:2@] (ion (formula + adduct): [C42H78NO8P+H] 1+)
TIMS collisional cross section (sample type: HeLa): 281 Å²

CCCCC/C=C\C/C=C\CCCCCCCC(=O)O[C@H](COC(=O)CCCCCCC/C=C\CCCCCC)COP(=O)([O-])OCC[N+](C)(C)C [PC 16:1_18:2] (ion (formula + adduct): [C42H78NO8P+H] 1+)
TIMS collisional cross section (sample type: HeLa): 282.6 Å² | TIMS collisional cross section (sample type: Liver): 282.8 Å² | TIMS collisional cross section (sample type: plasma): 282.6 Å²

CCCCC/C=C\C/C=C\C/C=C\C/C=C\CCCC(=O)O[C@H](COC(=O)CCCCCCC/C=C\CCCCCC)COP(=O)([O-])OCC[N+](C)(C)C [PC 16:1_20:4] (ion (formula + adduct): [C44H78NO8P+H] 1+)
TIMS collisional cross section (sample type: HeLa): 285.8 Å² | TIMS collisional cross section (sample type: plasma): 286.4 Å²

CC/C=C\C/C=C\C/C=C\C/C=C\C/C=C\CCCC(=O)O[C@H](COC(=O)CCCCCCC/C=C\CCCCCC)COP(=O)([O-])OCC[N+](C)(C)C [PC 16:1_20:5] (ion (formula + adduct): [C44H76NO8P+H] 1+)
TIMS collisional cross section (sample type: HeLa): 283.2 Å²

CC/C=C\C/C=C\C/C=C\C/C=C\C/C=C\C/C=C\CCC(=O)O[C@H](COC(=O)CCCCCCC/C=C\CCCCCC)COP(=O)([O-])OCC[N+](C)(C)C [PC 16:1_22:6@] (ion (formula + adduct): [C46H78NO8P+H] 1+)
TIMS collisional cross section (sample type: HeLa): 288.4 Å² | TIMS collisional cross section (sample type: Liver): 289 Å²

CC/C=C\C/C=C\C/C=C\C/C=C\C/C=C\C/C=C\CCC(=O)O[C@H](COC(=O)CCCCCCC/C=C\CCCCCC)COP(=O)([O-])OCC[N+](C)(C)C [PC 16:1_22:6] (ion (formula + adduct): [C46H78NO8P+H] 1+)
TIMS collisional cross section (sample type: Liver): 288.5 Å²

CCCCCCCC/C=C\CCCCCCCC(=O)O[C@H](COC(=O)CCCCCCCCCCCCCCCC)COP(=O)([O-])OCC[N+](C)(C)C [PC 17:0@_18:1] (ion (formula + adduct): [C43H84NO8P+H] 1+)
TIMS collisional cross section (sample type: HeLa): 291.8 Å²

CCCCC/C=C\C/C=C\CCCCCCCC(=O)O[C@H](COC(=O)CCCCCCCCCCCCCCCC)COP(=O)([O-])OCC[N+](C)(C)C [PC 17:0@_18:2] (ion (formula + adduct): [C43H82NO8P+H] 1+)
TIMS collisional cross section (sample type: Liver): 288.1 Å²

CCCCC/C=C\C/C=C\C/C=C\C/C=C\CCCC(=O)O[C@H](COC(=O)CCCCCCCCCCCCCCCC)COP(=O)([O-])OCC[N+](C)(C)C [PC 17:0@_20:4] (ion (formula + adduct): [C45H82NO8P+H] 1+)
TIMS collisional cross section (sample type: plasma): 292.4 Å²

CCCCC/C=C\C/C=C\CCCCCCCC(=O)O[C@H](COC(=O)CCCCCCCCCCCCCCCC)COP(=O)([O-])OCC[N+](C)(C)C [PC 17:0_18:2] (ion (formula + adduct): [C43H82NO8P+H] 1+)
TIMS collisional cross section (sample type: Liver): 288.1 Å²

CCCCC/C=C\C/C=C\C/C=C\C/C=C\CCCC(=O)O[C@H](COC(=O)CCCCCCCCCCCCCCCC)COP(=O)([O-])OCC[N+](C)(C)C [PC 17:0_20:4] (ion (formula + adduct): [C45H82NO8P+H] 1+)
TIMS collisional cross section (sample type: plasma): 292.9 Å²

CC/C=C\C/C=C\C/C=C\C/C=C\C/C=C\CCCC(=O)O[C@H](COC(=O)CCCCCCC/C=C\CCCCCCC)COP(=O)([O-])OCC[N+](C)(C)C [PC 17:1@_20:5] (ion (formula + adduct): [C45H78NO8P+H] 1+)
TIMS collisional cross section (sample type: HeLa): 286.4 Å²

CCCCCCC/C=C\CCCCCCCC(=O)OC[C@H](COP(=O)([O-])OCC[N+](C)(C)C)OC(=O)CCCCCCC/C=C\CCCCCCCC [PC 17:1_18:1] (ion (formula + adduct): [C43H82NO8P+H] 1+)
TIMS collisional cross section (sample type: HeLa): 289.2 Å²

CCCCC/C=C\C/C=C\CCCCCCCC(=O)O[C@H](COC(=O)CCCCCCC/C=C\CCCCCCC)COP(=O)([O-])OCC[N+](C)(C)C [PC 17:1_18:2] (ion (formula + adduct): [C43H80NO8P+H] 1+)
TIMS collisional cross section (sample type: Liver): 285.6 Å²

CCCCC/C=C\C=C/CCCCCCCCC(=O)O[C@H](COC(=O)CCCCCCCCCCCCCCCCC)COP(=O)([O-])OCC[N+](C)(C)C [PC 18:0@_18:2] (ion (formula + adduct): [C44H84NO8P+H] 1+)
TIMS collisional cross section (sample type: plasma): 292.6 Å²

CCCCC/C=C\C/C=C\C/C=C\C/C=C\CCCC(=O)O[C@H](COC(=O)CCCCCCCCCCCCCCCCC)COP(=O)([O-])OCC[N+](C)(C)C [PC 18:0@_20:4] (ion (formula + adduct): [C46H84NO8P+H] 1+)
TIMS collisional cross section (sample type: plasma): 296 Å²
